Results reported in US20080190575A1, “Lignocellulosic Composite Material and Method for Preparing the Same” (priority 2004, published 2008).

Test: Dissolvability of insecticide in solvent
Type: physicochemical
Excerpt: It has been determined that certain polar solvents are capable of dissolving at least 10 grams of the insecticide per liter of solvent. For example, it has also been determined that water is not a sufficient polar solvent for certain insecticides, such as fipronil, because it is capable of only dissolving 2.4 milligrams per liter of water. Generally, these polar solvents that are capable of dissolving at least 10 grams of the insecticide per liter are selected from at least one of an alcohol, a ketone, and an ester. More preferably, the polar solvent is selected from the group of octyl alcohol, isopropyl alcohol, methyl alcohol, acetone, carpryl alcohol, propylene carbonate, gamma-butyrolactone, 3-pentanone, 1-methyl-2-pyrrolidinone, and combinations thereof.
In Examples 1 and 2, the lignocellulosic composite material was formed having a thickness of 0.437 inches with a density of about 39 lb/ft^3. […] The fipronil was present in an amount of about 150 PPM based on the dry weight of the lignocellulosic particles. In Example 2, 0.28 grams of fipronil were dissolved in 1.00 grams of the polar solvent to form the insecticide solution. The fipronil was present in an amount of about 30 PPM based on the dry weight of the lignocellulosic particles. The polar solvent was 1-methyl-2-pyrrolidinone (NMP). NMP is capable of dissolving about 289 grams of fipronil per liter of NMP.
In Examples 3 and 4, the lignocellulosic composite material was formed having a thickness of 0.719 inches with a density of about 40 lb/ft^3. In Example 3, 1.15 grams of fipronil were dissolved in 5 grams of the polar solvent to form the insecticide solution. The fipronil was present in an amount of about 50 PPM based on the dry weight of the lignocellulosic particles. […] The fipronil was present in an amount of about 100 PPM based on the dry weight of the lignocellulosic particles. The polar solvent in Examples 3 and 4 was 3-pentanone, which is capable of dissolving about 326 grams of fipronil per liter of 3-pentanone.

Compound: N#Cc1nn(-c2c(Cl)cc(C(F)(F)F)cc2Cl)c(N)c1[S+]([O-])C(F)(F)F (stereo not drawn) [fipronil, 5-amino-1-(2,6-dichloro-4-(trifluoromethyl)phenyl)-4-((trifluoromethyl)sulfinyl)-1H-pyrazole-3-carbonitrile]
- amount dissolved per liter of NMP (solvent 1-methyl-2-pyrrolidinone (NMP)): about 289 grams per liter
- amount dissolved per liter of 3-pentanone (solvent 3-pentanone): about 326 grams per liter
- amount dissolved per liter of water (solvent water): 2.4 milligrams per liter
